Experimental data as given in patent publication US20150322067A1, “NITROGEN CONTAINING COMPOUNDS AND THEIR USE” (priority 2011, published 2015).
Like-named read-outs stand apart in the source and are kept apart here.

Tests used:
Test in all cases: Agar dilution MIC (CLSI), beta-lactam with or without beta-lactamase inhibitor
Type in all cases: cell-based
E. coli 7 MP = details: Class C ESBL strain; for MIC of Ceftazidime + inhibitor: Ceftazidime in combination with inhibitor at 4 mcg/ml
Description: (§1) The biological activity of representative compounds of the invention against various bacterial strains (in combination with another antibacterial agent) was investigated. In a typical study, overnight grown bacterial cultures were diluted appropriately and inoculated on the agar media containing doubling dilutions of the antibiotics. Observation for growth or no growth was performed after 16-20 hours of incubation at 35±2° C. in ambient air. The overall procedure was performed as per Clinical and Laboratory Standards Institute (CLSI) recommendations (Clinical and Laboratory Standards Institute (CLSI), performance Standards for Antimicrobial Susceptibility Testing, 20th Informational Supplement, M 100-S20, Volume 30, No. 1, 2010). Table 1 details potencies of ceftazidime in combination of representative compound according to the invention (compound of formula (I) wherein M is sodium) against various MDR (Multi Drug Resistant) Gram-negative strains producing Class A, C and D beta-lactamase enzymes. The activities are expressed as MICs (mcg/ml). For comparison, the activity of various other known beta-lactamase inhibitors such as clavulanic acid, tazobactam, MK-7655, and NXL-104 are also provided.

E. coli B 89 = details: Class C ESBL strain; for MIC of Ceftazidime + inhibitor: Ceftazidime in combination with inhibitor at 4 mcg/ml
Description: as §1

E. coli M 50 = details: Class C ESBL strain; for MIC of Ceftazidime + inhibitor: Ceftazidime in combination with inhibitor at 4 mcg/ml
Description: as §1

E. coli NCTC 13351 = details: Class A ESBL strain; for MIC of Ceftazidime + inhibitor: Ceftazidime in combination with inhibitor at 4 mcg/ml
Description: as §1

E. coli NCTC 13352 = details: Class A ESBL strain; for MIC of Ceftazidime + inhibitor: Ceftazidime in combination with inhibitor at 4 mcg/ml
Description: as §1

[1] = test system: K. pneumoniae ATCC 700603; details: Class A ESBL strain; for MIC of Ceftazidime + inhibitor: Ceftazidime in combination with inhibitor at 4 mcg/ml
Description: as §1

A. baumanni NCTC 13301 = details: Class D ESBL strain; for MIC of Ceftazidime + inhibitor: Ceftazidime in combination with inhibitor at 4 mcg/ml; for MIC of Meropenem + inhibitor: Meropenem in combination with inhibitor at 4 mcg/ml
Description: as §1
(§2) Table 2 details data corresponding to a combination of Meropenem with a compound of Formula (I), wherein M is sodium, against Class D ESBL producing strains. Class D ESBLs producing pathogens that confer a high degree of resistance to carbapenems are a therapeutic problem in the clinical settings since extremely limited treatment options are available to treat them.

A. baumanni NCTC 13304 = details: Class D ESBL strain; for MIC of Ceftazidime + inhibitor: Ceftazidime in combination with inhibitor at 4 mcg/ml; for MIC of Meropenem + inhibitor: Meropenem in combination with inhibitor at 4 mcg/ml
Description: as §1, §2

A. baumanni NCTC 13305 = details: Class D ESBL strain; for MIC of Ceftazidime + inhibitor: Ceftazidime in combination with inhibitor at 4 mcg/ml; for MIC of Meropenem + inhibitor: Meropenem in combination with inhibitor at 4 mcg/ml
Description: as §1, §2

[2] = Ceftazidime alone, read-out: MIC of Ceftazidime, Control
[3] = Meropenem alone, read-out: MIC of Meropenem, Control

| Compound | MIC of Ceftazidime + inhibitor (E. coli 7 MP) | MIC of Ceftazidime + inhibitor (E. coli B 89) | MIC of Ceftazidime + inhibitor (E. coli M 50) | MIC of Ceftazidime + inhibitor (E. coli NCTC 13351) | MIC of Ceftazidime + inhibitor (E. coli NCTC 13352) | MIC of Ceftazidime + inhibitor [1] | MIC of Ceftazidime + inhibitor (A. baumanni NCTC 13301) | MIC of Meropenem + inhibitor (A. baumanni NCTC 13301) | MIC of Ceftazidime + inhibitor (A. baumanni NCTC 13304) | MIC of Meropenem + inhibitor (A. baumanni NCTC 13304) | MIC of Ceftazidime + inhibitor (A. baumanni NCTC 13305) | MIC of Meropenem + inhibitor (A. baumanni NCTC 13305) | also measured |
| --- | --- | --- | --- | --- | --- | --- | --- | --- | --- | --- | --- | --- | --- |
| C[C@]1(Cn2ccnn2)[C@H](C(=O)O)N2C(=O)C[C@H]2S1(=O)=O [Tazobactam, tazobactam] | >32 µg/mL | >32 µg/mL | >32 µg/mL | 0.5 µg/mL | 1 µg/mL | 1 µg/mL | >32 µg/mL | 32 µg/mL | >32 µg/mL | 32 µg/mL | 16 µg/mL | 8 µg/mL | – |
| O=C(NC1CCNCC1)[C@@H]1CC[C@@H]2CN1C(=O)N2OS(=O)(=O)O [MK 7655] | 8 µg/mL | 4 µg/mL | 2 µg/mL | 2 µg/mL | 8 µg/mL | 2 µg/mL | >32 µg/mL | 32 µg/mL | 32 µg/mL | 32 µg/mL | 16 µg/mL | 8 µg/mL | – |
| O=C(O)[C@H]1/C(=C/CO)O[C@@H]2CC(=O)N21 [Clavulanic acid, clavulanic acid] | >32 µg/mL | >32 µg/mL | >32 µg/mL | 0.5 µg/mL | 0.5 µg/mL | 0.5 µg/mL | >32 µg/mL | 32 µg/mL | >32 µg/mL | 32 µg/mL | 16 µg/mL | 8 µg/mL | – |
| CC(C)(O/N=C(\C(=O)N[C@@H]1C(=O)N2C(C(=O)[O-])=C(C[n+]3ccccc3)CS[C@H]12)c1csc(N)n1)C(=O)O [Ceftazidime] | – | – | – | – | – | – | – | – | – | – | – | – | MIC (E. coli 7 MP; Escherichia coli, 7MP, Ceftazidime alone, read-out: MIC of Ceftazidime, Control): > 32 µg/mL; MIC (E. coli B 89; Escherichia coli, B89, Ceftazidime alone, read-out: MIC of Ceftazidime, Control): > 32 µg/mL; MIC (E. coli M 50; Escherichia coli, M50, Ceftazidime alone, read-out: MIC of Ceftazidime, Control): > 32 µg/mL; MIC (E. coli NCTC 13351; Escherichia coli, NCTC13351, Ceftazidime alone, read-out: MIC of Ceftazidime, Control): 32 µg/mL; MIC (E. coli NCTC 13352; Escherichia coli, NCTC13352, Ceftazidime alone, read-out: MIC of Ceftazidime, Control): > 32 µg/mL; MIC ([1]; Klebsiella pneumoniae, ATCC700603, Ceftazidime alone, read-out: MIC of Ceftazidime, Control): 32 µg/mL; MIC (A. baumanni NCTC 13301; [2]): > 32 µg/mL; MIC (A. baumanni NCTC 13304; [2]): > 32 µg/mL; MIC (A. baumanni NCTC 13305; [2]): 16 µg/mL |
| C[C@@H](O)[C@H]1C(=O)N2C(C(=O)O)=C(S[C@@H]3CN[C@H](C(=O)N(C)C)C3)[C@H](C)[C@H]12 [Meropenem] | – | – | – | – | – | – | – | – | – | – | – | – | MIC (A. baumanni NCTC 13301; [3]): 32 µg/mL; MIC (A. baumanni NCTC 13304; [3]): 32 µg/mL; MIC (A. baumanni NCTC 13305; [3]): 8 µg/mL |
| N#C[C@@H]1CC[C@@H]2CN1C(=O)N2OS(=O)(=O)[O-].[Na+] [Sodium salt of trans-7-oxo-6-(sulphoxy)-1,6-diazabicyclo[3.2.1]-octane-2-carbonitrile] | 2 µg/mL | 1 µg/mL | 1 µg/mL | 0.5 µg/mL | 0.5 µg/mL | 0.5 µg/mL | 32 µg/mL | 4 µg/mL | 32 µg/mL | 2 µg/mL | 16 µg/mL | 2 µg/mL | – |
| NC(=O)[C@@H]1CC[C@@H]2CN1C(=O)N2OS(=O)(=O)O [NXL104] | 4 µg/mL | 1 µg/mL | 1 µg/mL | 0.5 µg/mL | 0.5 µg/mL | 0.5 µg/mL | >32 µg/mL | 16 µg/mL | 32 µg/mL | 16 µg/mL | 16 µg/mL | 8 µg/mL | – |
